Laboratory results published in US10294202B2, “Pyrrolidinones as herbicides” (FMC Corporation, priority 2013, dated 2019).

Experiments:
[1] = tested on: lambsquarters; assay: Test D pre-/postemergence herbicide test; format: in vivo, Chenopodium album; settings: for Plant response rating: Lambsquarters, scale 0 to 100; for Plant response rating, Lambsquarters: scale 0 to 100 (0 no effect, 100 complete control)
In short: (§1)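 Compound applied in non-phytotoxic solvent with surfactant, either preemergence (silt loam soil) or postemergence (peat moss/vermiculite medium, 2–18 cm plants). Evaluated visually after 7 to 21 days; 0 = no effect, 100 = complete control.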

[2] = tested on: barley, spring; assay: Test D pre-/postemergence herbicide test; format: in vivo, Hordeum vulgare; settings: for Plant response rating: Barley, Spring, scale 0 to 100; for Plant response rating, Barley, Spring: scale 0 to 100 (0 no effect, 100 complete control)
In short: as §1

[3] = tested on: mustard, wild; assay: Test D pre-/postemergence herbicide test; format: in vivo, Sinapis arvensis; settings: for Plant response rating: Mustard, Wild, scale 0 to 100; for Plant response rating, Mustard, Wild: scale 0 to 100 (0 no effect, 100 complete control)
In short: as §1

[4] = tested on: oat, wild; assay: Test D pre-/postemergence herbicide test; format: in vivo, Avena fatua; settings: for Plant response rating: Postemergence, Oat, Wild, scale 0 to 100; for Plant response rating, Oat, Wild: Preemergence, scale 0 to 100 (0 no effect, 100 complete control)
In short: as §1

[5] = tested on: oilseed rape; assay: Test D pre-/postemergence herbicide test; format: in vivo, Brassica napus; settings: for Plant response rating: Postemergence, Oilseed Rape, scale 0 to 100; for Plant response rating, Oilseed Rape: Preemergence, scale 0 to 100 (0 no effect, 100 complete control)
In short: as §1

[6] = tested on: sandbur; assay: Test E preemergence herbicide test; format: in vivo, Cenchrus echinatus; design: key: 0 = no effect, 100 = complete control
In short: (§2)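 Seeds sown in silt loam soil received preemergence treatment with compound in a non-phytotoxic solvent mixture containing surfactant. After 21 days in the greenhouse, plants were visually rated against untreated controls on a 0 (no effect) to 100 (complete control) scale.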

[7] = tested on: windgrass; assay: Test D pre-/postemergence herbicide test; format: in vivo, Apera spica-venti; settings: for Plant response rating: Postemergence, Windgrass, scale 0 to 100; for Plant response rating, Windgrass: Preemergence, scale 0 to 100 (0 no effect, 100 complete control)
In short: as §1

[8] = tested on: Russian thistle; assay: Test D pre-/postemergence herbicide test; format: in vivo, Salsola kali; settings: for Plant response rating: Postemergence, Russian Thistle, scale 0 to 100; for Plant response rating, Russian Thistle: Preemergence, scale 0 to 100 (0 no effect, 100 complete control)
In short: as §1

[9] = tested on: bluegrass; assay: Test D pre-/postemergence herbicide test; format: in vivo, Poa annua; settings: for Plant response rating: Bluegrass, scale 0 to 100; for Plant response rating, Bluegrass: scale 0 to 100 (0 no effect, 100 complete control)
In short: as §1

[10] = tested on: nightshade; assay: Test E preemergence herbicide test; format: in vivo, Solanum ptycanthum; design: key: 0 = no effect, 100 = complete control
In short: as §2

Structure (SMILES): O=C1NCC(c2ccc(C(F)(F)F)cc2)C1C(=O)Nc1cccc(F)c1F (racemic) [Compound 202]
- Plant response rating ([1]; Postemergence, 31 g ai/ha): 65
- Plant response rating ([1]; Postemergence, 62 g ai/ha): 60
- Plant response rating ([1]; Postemergence, 125 g ai/ha): 70
- Plant response rating ([1]; Postemergence, 250 g ai/ha): 75
- Plant response rating, Lambsquarters ([1]; Preemergence, 62 g ai/ha): 85
- Plant response rating, Lambsquarters ([1]; Preemergence, 31 g ai/ha): 80
- Plant response rating ([1]; Preemergence, 125 g ai/ha): 85
- Plant response rating ([1]; Preemergence, 250 g ai/ha): 85
- Plant response rating ([2]; Postemergence, 31 g ai/ha): 0
- Plant response rating ([2]; Postemergence, 62 g ai/ha): 0
- Plant response rating ([2]; Postemergence, 125 g ai/ha): 0
- Plant response rating ([2]; Postemergence, 250 g ai/ha): 5
- Plant response rating, Barley, Spring ([2]; Preemergence, 62 g ai/ha): 25
- Plant response rating, Barley, Spring ([2]; Preemergence, 31 g ai/ha): 0
- Plant response rating ([2]; Preemergence, 125 g ai/ha): 25
- Plant response rating ([2]; Preemergence, 250 g ai/ha): 30
- Plant response rating ([3]; Postemergence, 31 g ai/ha): 85
- Plant response rating ([3]; Postemergence, 62 g ai/ha): 80
- Plant response rating ([3]; Postemergence, 125 g ai/ha): 80
- Plant response rating ([3]; Postemergence, 250 g ai/ha): 85
- Plant response rating, Mustard, Wild ([3]; Preemergence, 62 g ai/ha): 0
- Plant response rating, Mustard, Wild ([3]; Preemergence, 31 g ai/ha): 0
- Plant response rating ([3]; Preemergence, 125 g ai/ha): 20
- Plant response rating ([3]; Preemergence, 250 g ai/ha): 75
- Plant response rating ([4]; 31 g ai/ha): 5
- Plant response rating ([4]; 62 g ai/ha): 10
- Plant response rating ([4]; 125 g ai/ha): 10
- Plant response rating ([4]; 250 g ai/ha): 15
- Plant response rating, Oat, Wild ([4]; 62 g ai/ha): 20
- Plant response rating, Oat, Wild ([4]; 125 g ai/ha): 35
- Plant response rating, Oat, Wild ([4]; 31 g ai/ha): 5
- Plant response rating, Oat, Wild ([4]; 250 g ai/ha): 40
- Plant response rating ([5]; 31 g ai/ha): 60
- Plant response rating ([5]; 62 g ai/ha): 70
- Plant response rating ([5]; 125 g ai/ha): 60
- Plant response rating ([5]; 250 g ai/ha): 55
- Plant response rating, Oilseed Rape ([5]; 62 g ai/ha): 35
- Plant response rating, Oilseed Rape ([5]; 125 g ai/ha): 45
- Plant response rating, Oilseed Rape ([5]; 31 g ai/ha): 0
- Plant response rating, Oilseed Rape ([5]; 250 g ai/ha): 75
- Plant response rating, Sandbur ([6]; 31 g ai/ha): 35
- Plant response rating, Sandbur ([6]; 62 g ai/ha): 70
- Plant response rating, Sandbur ([6]; 125 g ai/ha): 85
- Plant response rating, Sandbur ([6]; 250 g ai/ha): 80
- Plant response rating ([7]; 31 g ai/ha): 0
- Plant response rating ([7]; 62 g ai/ha): 10
- Plant response rating ([7]; 125 g ai/ha): 35
- Plant response rating ([7]; 250 g ai/ha): 45
- Plant response rating, Windgrass ([7]; 62 g ai/ha): 85
- Plant response rating, Windgrass ([7]; 125 g ai/ha): 90
- Plant response rating, Windgrass ([7]; 31 g ai/ha): 65
- Plant response rating, Windgrass ([7]; 250 g ai/ha): 90
- Plant response rating ([8]; 31 g ai/ha): 30
- Plant response rating ([8]; 62 g ai/ha): 30
- Plant response rating ([8]; 125 g ai/ha): 30
- Plant response rating ([8]; 250 g ai/ha): 35
- Plant response rating, Russian Thistle ([8]; 62 g ai/ha): 20
- Plant response rating, Russian Thistle ([8]; 125 g ai/ha): 35
- Plant response rating, Russian Thistle ([8]; 31 g ai/ha): 15
- Plant response rating, Russian Thistle ([8]; 250 g ai/ha): 40
- Plant response rating ([9]; Postemergence, 31 g ai/ha): 0
- Plant response rating ([9]; Postemergence, 62 g ai/ha): 10
- Plant response rating ([9]; Postemergence, 125 g ai/ha): 10
- Plant response rating ([9]; Postemergence, 250 g ai/ha): 15
- Plant response rating, Bluegrass ([9]; Preemergence, 62 g ai/ha): 25
- Plant response rating, Bluegrass ([9]; Preemergence, 31 g ai/ha): 10
- Plant response rating ([9]; Preemergence, 125 g ai/ha): 65
- Plant response rating ([9]; Preemergence, 250 g ai/ha): 70
- Plant response rating, Nightshade ([10]; 31 g ai/ha): 0
- Plant response rating, Nightshade ([10]; 62 g ai/ha): 50
- Plant response rating, Nightshade ([10]; 125 g ai/ha): 90
- Plant response rating, Nightshade ([10]; 250 g ai/ha): 80

Structure (SMILES): O=C1NCC(c2ccc(F)c(F)c2)C1C(=O)Nc1cccc(F)c1F (stereo not shown) [Compound 17, N-(2,3-difluorophenyl)-4-(3,4-difluorophenyl)-2-oxo-3-pyrrolidinecarboxamide]
- Plant response rating ([1]; Postemergence, 16 g ai/ha): 0
- Plant response rating ([1]; Postemergence, 31 g ai/ha): 0
- Plant response rating ([1]; Postemergence, 62 g ai/ha): 0
- Plant response rating ([1]; Postemergence, 125 g ai/ha): 20
- Plant response rating ([1]; Postemergence, 250 g ai/ha): 40
- Plant response rating ([2]; Postemergence, 16 g ai/ha): 0
- Plant response rating ([2]; Postemergence, 31 g ai/ha): 0
- Plant response rating ([2]; Postemergence, 62 g ai/ha): 0
- Plant response rating ([2]; Postemergence, 125 g ai/ha): 0
- Plant response rating ([2]; Postemergence, 250 g ai/ha): 0
- Plant response rating ([3]; Postemergence, 16 g ai/ha): 0
- Plant response rating ([3]; Postemergence, 31 g ai/ha): 0
- Plant response rating ([3]; Postemergence, 62 g ai/ha): 10
- Plant response rating ([3]; Postemergence, 125 g ai/ha): 30
- Plant response rating ([3]; Postemergence, 250 g ai/ha): 30
- Plant response rating ([4]; 16 g ai/ha): 0
- Plant response rating ([4]; 31 g ai/ha): 0
- Plant response rating ([4]; 62 g ai/ha): 0
- Plant response rating ([4]; 125 g ai/ha): 0
- Plant response rating ([4]; 250 g ai/ha): 0
- Plant response rating ([5]; 16 g ai/ha): 0
- Plant response rating ([5]; 31 g ai/ha): 0
- Plant response rating ([5]; 62 g ai/ha): 10
- Plant response rating ([5]; 125 g ai/ha): 20
- Plant response rating ([5]; 250 g ai/ha): 40
- Plant response rating, Sandbur ([6]; 16 g ai/ha): 0
- Plant response rating, Sandbur ([6]; 31 g ai/ha): 0
- Plant response rating, Sandbur ([6]; 62 g ai/ha): 50
- Plant response rating, Sandbur ([6]; 125 g ai/ha): 65
- Plant response rating, Sandbur ([6]; 250 g ai/ha): 95
- Plant response rating ([7]; 16 g ai/ha): 0
- Plant response rating ([7]; 31 g ai/ha): 0
- Plant response rating ([7]; 62 g ai/ha): 0
- Plant response rating ([7]; 125 g ai/ha): 0
- Plant response rating ([7]; 250 g ai/ha): 0
- Plant response rating ([8]; 16 g ai/ha): 0
- Plant response rating ([8]; 31 g ai/ha): 0
- Plant response rating ([8]; 62 g ai/ha): 0
- Plant response rating ([8]; 125 g ai/ha): 20
- Plant response rating ([8]; 250 g ai/ha): 40
- Plant response rating ([9]; Postemergence, 16 g ai/ha): 0
- Plant response rating ([9]; Postemergence, 31 g ai/ha): 0
- Plant response rating ([9]; Postemergence, 62 g ai/ha): 0
- Plant response rating ([9]; Postemergence, 125 g ai/ha): 0
- Plant response rating ([9]; Postemergence, 250 g ai/ha): 0
- Plant response rating, Nightshade ([10]; 16 g ai/ha): 0
- Plant response rating, Nightshade ([10]; 62 g ai/ha): 0
- Plant response rating, Nightshade ([10]; 125 g ai/ha): 0
- Plant response rating, Nightshade ([10]; 250 g ai/ha): 0
